Source: patent EP2787003A1, “Antimicrobial peptide produced by marine sponge-derived Bacillus subtilis” (priority 2013, dated 2014)

Experiments:
B. cereus = assay: Spot on lawn assay; type: cell-based, Bacillus cereus NCIMB 9373; design: key: +, clear halo of growth inhibition; ++: multiple +, increased activity as assessed visually by the increased diameter of the inhibition zone; +++: multiple +, increased activity as assessed visually by the increased diameter of the inhibition zone; ++++: multiple +, increased activity as assessed visually by the increased diameter of the inhibition zone; +++++: multiple +, increased activity as assessed visually by the increased diameter of the inhibition zone; -, no inhibition; conditions: indicator B. cereus
Description: (§1) Antimicrobial activity of isolate MMA7 against the indicator strains was initially assessed with a deferred antagonism assay as described by Phelan et al. (2012). Subsequent testing of supernatants, crude extracts and purified compounds was carried out with a well and/or a spot on lawn assays. Essentially, 5 µl of samples were spotted onto 20 ml agar plates seeded with the indicator strain to a final OD600 of 0.015, or 30 µl aliquots were applied to a 5 mm well made on identical plates.

A. hydrophila = assay: Spot on lawn assay; type: cell-based, Aeromonas hydrophila LMG 2844; design: key to Antimicrobial activity, spot on lawn assay: +, clear halo of growth inhibition; ++: multiple +, increased activity as assessed visually by the increased diameter of the inhibition zone; +++: multiple +, increased activity as assessed visually by the increased diameter of the inhibition zone; ++++: multiple +, increased activity as assessed visually by the increased diameter of the inhibition zone; +++++: multiple +, increased activity as assessed visually by the increased diameter of the inhibition zone; -, no inhibition
Description: as §1

Alteromonas sp. = assay: Spot on lawn assay; type: cell-based; design: key to Antimicrobial activity, spot on lawn assay: +, clear halo of growth inhibition; ++: multiple +, increased activity as assessed visually by the increased diameter of the inhibition zone; +++: multiple +, increased activity as assessed visually by the increased diameter of the inhibition zone; ++++: multiple +, increased activity as assessed visually by the increased diameter of the inhibition zone; +++++: multiple +, increased activity as assessed visually by the increased diameter of the inhibition zone; -, no inhibition
Description: as §1

C. lusitaniae = assay: Spot on lawn assay; type: cell-based, Candida lusitaniae; design: key: +, clear halo of growth inhibition; ++: multiple +, increased activity as assessed visually by the increased diameter of the inhibition zone; +++: multiple +, increased activity as assessed visually by the increased diameter of the inhibition zone; ++++: multiple +, increased activity as assessed visually by the increased diameter of the inhibition zone; +++++: multiple +, increased activity as assessed visually by the increased diameter of the inhibition zone; -, no inhibition; conditions: indicator C. lusitaniae
Description: as §1

proteinase K = proteinase K (Parengyodontium album, UniProt P06873); assay: Susceptibility to proteolytic enzymes, bioactivity by spot on lawn assay; conditions: proteinase K 1 mg ml^-1, 37 °C, 1 h; indicator L. monocytogenes
Sequence of proteinase K (P06873 106-384): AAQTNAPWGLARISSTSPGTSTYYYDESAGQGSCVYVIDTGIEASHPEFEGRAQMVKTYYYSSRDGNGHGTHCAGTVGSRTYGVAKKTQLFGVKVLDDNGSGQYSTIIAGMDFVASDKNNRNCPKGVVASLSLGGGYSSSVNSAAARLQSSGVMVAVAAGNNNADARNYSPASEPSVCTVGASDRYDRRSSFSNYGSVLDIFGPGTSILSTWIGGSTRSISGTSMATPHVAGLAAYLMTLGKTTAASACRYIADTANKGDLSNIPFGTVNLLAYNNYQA

C=C1NC(=O)[C@@H]2CSC[C@@H](NC(=O)[C@@H]3CS[C@@H](C)[C@H]4NC(=O)[C@H](Cc5ccccc5)NC(=O)[C@H](NC(=O)[C@H](CCCNC(=N)N)NC(=O)[C@@H]5CSC[C@@H](NC(=O)[C@H](CCC(N)=O)NC(=O)[C@@H](NC(=O)[C@@H](NC(=O)/C(=C/C)NC(=O)[C@H](CCCCN)NC(=O)CNC(=O)[C@@H](NC(=O)/C(=C/C)NC(=O)[C@H](C)NC(=O)[C@H](Cc6c[nH]c7ccccc67)NC(=O)C(=O)CC)[C@@H](C)CC)[C@@H](C)CC)C(C)C)C(=O)N[C@@H](C(C)C)C(=O)N[C@@H](CCCCN)C(=O)N[C@@H](CCCCN)C(=O)N5)[C@H](C)SC[C@H](NC4=O)C(=O)NCC(=O)N3)C(=O)N[C@@H](CC(C)C)C(=O)NCC(=O)N[C@H](CSC[C@@H](C(=O)N[C@@H](CC(N)=O)C(=O)O)NC(=O)[C@H](CC(N)=O)NC1=O)C(=O)N2 [Subtilomycin]
Antimicrobial activity, spot on lawn assay (B. cereus): ++ | Amount of peptide needed for detectable activity relative to that required to inhibit the Gram-positive indicators (A. hydrophila; A. hydrophila): four to five fold more peptide | Antimicrobial activity, spot on lawn assay (A. hydrophila; indicator A. hydrophila, *activity only detected with 4 to 5 times more peptide than that used for the other indicators): +* | Amount of peptide needed for detectable activity relative to that required to inhibit the Gram-positive indicators (Alteromonas sp.; Alteromonas sp.): four to five fold more peptide | Antimicrobial activity, spot on lawn assay (Alteromonas sp.; indicator Alteromonas sp., *activity only detected with 4 to 5 times more peptide than that used for the other indicators): +* | Antimicrobial activity, spot on lawn assay (C. lusitaniae): - | Antimicrobial activity after proteolytic treatment (proteinase K): None of the treatments resulted in a decrease of activity
